Test results taken from US5470714A, “One-step free fatty acid determination method” (Lidak Pharmaceuticals, priority 1993, dated 1995).

Key:
[1] = target: T1, I-FABP (native, rat intestinal) (Rattus norvegicus, UniProt P02693); assay: Tryptophan fluorescence of native I-FABP on addition of FFA; format: binding; settings: as much as
T1 construct: made in house; host or cells: E. coli BL21 (pET11D)
T1 sequence (P02693 1-132): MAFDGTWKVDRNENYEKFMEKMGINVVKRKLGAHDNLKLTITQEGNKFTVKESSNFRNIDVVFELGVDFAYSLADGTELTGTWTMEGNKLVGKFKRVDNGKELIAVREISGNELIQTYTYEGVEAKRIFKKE
Protocol: In early work, cloning was carried out using a cDNA library from neo-natal rat intestine purchased from STRATAGENE (11099 North Torrey Pines Rd., La Jolla, CA 92037). The library is carried by the LAMBDA ZAP II vector and was used with the E. coil host strain XL 1Blue which is supplied with the library. The recombinant clone was identified with an oligonucleotide probe based upon the published sequence of the I-FABP DNA (Lowe, J. B., Sacchettini, J. C., Laposata, M., McQuillan, J. J. and Gordon, J. I. J. Biol. Chem. 262:5931, 1987) and sequencing of 5and 3regions was used to verify the identity and completeness of the gene. […] The I-FABP gene was removed from the lambda Zap vector and inserted into a PET expression vector (PET11 D) purchased from Novagen and the protein was expressed using the E. coil strains (BL2 1) also from Novagen (Madison, WI, USA). I-FABP is isolated from E. coil and purified as described, Lowe, J. B., Sacchettini, J. C., Laposata, M., McQuillan, J. J. and Gordon, J. I. J. Biol. Chem. 262:5931, 1987. In this procedure cells, after a 3-hour culture, are lysed, centrifuged to remove cell debris and the pellet frozen at -70 °C. The frozen pellet was allowed to thaw in the presence of a lysing buffer composed of 50mM Tris, 0.5mM EDTA, 0.5mM PMSF, 0.1% Triton X100, at pH 8.0. This was centrifuged at 20,000 g. for 45 minutes and the pellet was discarded. The lysate was then subjected to two rounds (50% and 70%) of ammonium sulfate precipitation and the supernatant from the 70% material was desalted and concentrated using an Amicon ultrafiltration apparatus with a YM10 filter. The flitrate was then subjected to DEAE-Sephadex (A50), followed by Sephadex G-75 chromatography and the low molecular weight fractions were saved. This material gives a single band on 12% PAGE and an amino acid analysis of this material was consistent with the amino acid sequence of I-FABP. […] The addition of FFA (oleate, stearate, or palmitate) reduced the tryptophan fluorescence of the native protein by as much as 40%.

[2] = target: ADIFAB (Acrylodan derivatized native rat I-FABP, Lys27) (Rattus norvegicus, UniProt P02693); assay: biochemical; format: binding; settings: for rank of Kd, in words: among the long chain FA of Table I
Protocol: In most of the studies FFA was added to ADIFAB, in a buffer (A) consisting of 10 Mm HEPES, 150 Mm NaCI, 5 mM KCI, and 1 mM NaHPO4 at pH 7.4, as the sodium salt of the fatty acid. […] FA bind to most surfaces and values of the total FA concentration ([FAT]) were corrected for FA binding to cuvette and container walls. This binding was determined using trace amounts of […] labeled FA and, separately, ADIFAB florescence to determine the degree of FA loss upon transfer from one container to another. […] To minimize FA binding to surfaces, the monomer concentrations of stock solutions of the Na salts were maintained at pH >9.0 in water, and were warmed to >37° C. just prior to use. The polyunsaturated forms of the FA are subject to oxidation and it was observed that dissociation constants for binding to ADIFAB (Kd) were considerably greater for the oxidized FA. Care was taken to reduce the exposure of the FA salts to oxygen (all handling was carried out under Argon) and to store them at -20° C.
The concentrations of FA in the aqueous phase (FFA) and FA bound to ADIFAB ([FAb ]) were determined from the ratio of fluorescence emission intensities at 432 and 505 nm (R). The values FFA and [FAb ]were related to the ratio of intensities essentially by the method of Grynkiewicz et. al. (Grynkiewicz, G., Poenie, M., & Tsien, R. Y. (1985) J. Biol. Chem. 260, 3440-3450), according to which:
[FAb ]=[ADIFABtotal ]Q(fr)/(1-fr+FRQ) FR
are the ADIFAB intensities with zero and saturating concentrations of FFA, Ro is the intensity ratio in the absence of FFA and Rmax is the value when ADIFAB is saturated.
Because of the limiting solubility of long chain FA in aqueous solution Rmax and Q cannot. in general, be determined directly. To determine Rmax and Q, ADIFAB was titrated with lauric acid (12:0) whose high CMC allowed maximum R values (~10-11) to be measured that were considerably greater than with longer chain FA. From this titration a linear correlation was found between Q and R. Using Q, R pairs predicted by this relationship, a two parameter (Kd and Rmax) least squares analysis of each FA was done using the equation for equilibrium binding;
1/[FAb ]=(Kd/[ADIFAB])/FFA+1/[ADIFAB] (3)
Optimal Q and Rmax values obtained in this analysis were in the range 17-22 and 10 and 13, respectively, with average values of 19.5 and 11.5. Final Kd values for each FA were then determined by least squares analysis of equation (3) with Q and Rmax fixed at 19.5 and 11.5, respectively.
Fluorescence measurements to monitor Acrylodan fluorescence in various solvents, to monitor adduct formation, and to obtain complete spectra were carried out using an SLM 8000C fluorometer. Measurements of the 505/432 intensity ratios (R values) used to monitor the FFA titrations of ADIFAB were done with either the SLM 8000C or a Perkin-Elmer MPF-2A fluorometer.
ADIFAB dose response to FFA and FFA aggregate formation was measured. The ratio of fluorescent intensities at emission wavelengths of 505/432 nm were measured as a function of added Na salts of several FFA. Resulting data are depicted graphically in FIGS. 6A, 6B and 6C. Conditions were similar to those used in FIG. 3 except that 100mM EGTA was used in obtaining the data depicted in FIGS. 6A and 6B, while the data depicted in FIG. 6C was obtained using 1 mM CaCl2. Measured R values were used to determine FFA and [FFAb]using equations (1) and (2). The solid curves through the data of FIGS. 6A and 6C represent best fits of equation (3) obtained using a non-linear least squares algorithm. Aggregate formation was detected by measuring 90° light scattering from FFA in the buffer of FIG. 3 containing no added calcium and titrated with the Na salts of the FFA as described above, see FIG. 6B. The smoothed curves through the data, intended to guide-the-eye, indicate that aggregate formation, as detected by a sharp increase in light scattering, is approximately coincident with the maximum R value observed in the experiment related to FIG. 6A. […]

[3] = Fluorescence response of fluorescent-FABP probes to fatty acid binding; format: biochemical
Text: Principles and exemplary methods for constructing probes as described and defined herein and methods for determining FFA levels are described in detail below. Using these principles fourteen different fluorescent-FABP derivatives have been constructed. This has been done using 3 different native FABPs (rat intestine (I-FABP), human adipocyte (A-FABP), and human heart (H-FABP)) plus 4 site-specific mutants of two of these (I-FABP, (Thr83Cys83, Thr81Cys81, Lys27Cys27 and H-FABP, Thr27Lys27), and these proteins have been derivatized with 4 different fluorophores (acrylodan, danzyl aziridine, 4-[N-[(2-iodoacetoxy)ethyl]-N-methylamino]-7-nitrobenz-2-oxa1,3-diazole ester (IANBDE), 4-[N-[(2-iodoacetoxy)ethyl]-N-methylamino]-7-nitrobenz-2-oxa-1,3-diazole these derivatives can serve as FFA probes, to some degree. To date, however, ADIFAB remains the one that has optimal properties for current applications. Obviously, by occupying, partially, the binding site with a fluorophore, FA must compete for its site and therefore the FA binding constant for the FABP may be altered from the native protein. This is indeed the case for ADIFAB for which the Kd is about 10 fold greater than for the native protein. So long as FA can bind, however, the derivatized molecule can still function as a FFA probe and so long as the probe's dynamic range is sufficient (as it is for ADIFAB, IANBDE and IANBDA) then FFA levels over a wide range, including those that are physiologic, can be measured.
The Cys27 mutant of I-FABP (Lys27 to Cys27) with acrylodan, IANBDE and IANBDA have also been labeled using the technique described. […] This is the behavior predicted from the construction principles set forth herein, and reflects the shorter tethering arm to Cys27 as compared to Lys27 which prevents the deeper insertion into the binding site that is observed in the Lys27 derivative. […] Thus, those skilled in the art can with considerable confidence predict whether protein modifications and/or choice of label will result in a FFA responsive probe.
Site-directed mutagenesis was used to introduce a cysteine residue at positions 82 or 84, in place of the threonine residues that are normally at this position. Mutagenesis was carried out by annealing a synthetic prirner with a single mismatched base to the above derived expression vector. The primer was extended and ligated in vitro, and the resulting heteroduplex was used to transfect the host strain. The transfected host was screened for the mutated DNA by hybridization with the mutating oligonucleotide. Mutated plasmid DNA was isolated, retransformed into the host strain, and its structure confirmed by sequencing the recombinant DNA in regions defined by probes flanking the mutated region. This modified protein was expressed in the same system and purified by the same methods as for the native protein. Typical yields of purified protein were approximately 50 mg/liter cell culture. The mutated I-FABP protein was fluorescently derivatized by inserting a fluorescent group (which reacts specifically with free SH groups) at the newly created cysteine residue. The cysteine residue was inserted at positions 82 (replacing a threonine residue) and/or at residue 84 (also a threonine residue) since both these positions face outward from the FFA binding pocket but are in close proximity to the tryptophan at position 83 (about 3.5Å lateral separation along the b strand and about 10Å vertical separation between the centers of the tryptophan and fluorescent residues). […] Thus, either the direct emission of the fluorescent group and/or the rate of resonance energy transfer between Trp83 and the fluorescent group was postulated to change. In a non-limiting prior specific example, the dansyl derivative ACRYLODAN®(6-acryloly-2dimethylamenonaphthalene) was used to modify the mutated FABP and this probe was designated FAD508.
ADIFAB dose response to FFA and FFA aggregate formation was measured. […]

[4] = FA-ADIFAB Dissociation Constants, Kd, no added calcium, FIG. 6A, buffer A pH 7.4

With CCCCCCCC/C=C\CCCCCCCC(=O)O [OLEATE, oleate] the “reduction of the tryptophan fluorescence of the native protein” value (shortened to “reduction”) [1] was ≤ 40%, the Kd [2, 4] was 280 ± 10 nM and the Kd ([2]; Kd in the presence of calcium, 1 mM calcium) was 310 nM. The “rank of Kd, in words” value [2] was “smallest Kds”.

In the case of CCCCCCCCCCCCCCCC(=O)O [PALMITATE, palmitate], the “reduction” value [1] is reported as ≤ 40%, the Kd [2, 4] is reported as 320 ± 10 nM and the “rank of Kd, in words” value [2] is reported as “smallest Kds”. The “Kd relative to oleate (fold greater than oleate)” value ([2]; normalized to oleate) was “about 1.1 fold”.

In the case of CCCCCCCCCCCCCCCCCC(=O)O [stearate], the “reduction” value [1] is reported as ≤ 40%.

B1: Native A-FABP labeled with acrylodan: Native A-FABP which contains two cysteines, was labeled with acrylodan (conjugate, UniProt P15090 2-132, looked up)
Fatty acid-binding protein, …: CDAFVGTWKLVSSENFDDYMKEVGVGFATRKVAGMAKPNMIISVNGDVITIKSESTFKNTEISFILGQEFDEVTADDRKVKSTITLDGGVLVHVQKWDGKSTTIKRKREDDKLVVECVMKGVTSTRVYERA
modifications: acrylodan label
For B1, the “responsiveness of the probe to FA binding, in words” value (“responsiveness of the probe” for short) [3] was “only poorly responsive”.

B2: Native A-FABP labeled with NBD: Native A-FABP labeled with the N-[7-(4-nitrobenzo-2-oxa-1,3-diazol) (NBD) moieties (conjugate, UniProt P15090 2-132, looked up)
Fatty acid-binding protein, …: CDAFVGTWKLVSSENFDDYMKEVGVGFATRKVAGMAKPNMIISVNGDVITIKSESTFKNTEISFILGQEFDEVTADDRKVKSTITLDGGVLVHVQKWDGKSTTIKRKREDDKLVVECVMKGVTSTRVYERA
modifications: NBD label
notes: Native A-FABP labeled with the N-[7-(4-nitrobenzo-2-oxa-1,3-diazol) (NBD) moieties
In the case of B2, the “responsiveness of the probe” value [3] is reported as “only poorly responsive”.

B3: Cys27 mutant of I-FABP with acrylodan: Cys27 mutant of I-FABP (Lys27 to Cys27) with acrylodan (conjugate, UniProt P02693 2-132, looked up, variant K27C)
Fatty acid-binding protein, …: AFDGTWKVDRNENYEKFMEKMGINVVCRKLGAHDNLKLTITQEGNKFTVKESSNFRNIDVVFELGVDFAYSLADGTELTGTWTMEGNKLVGKFKRVDNGKELIAVREISGNELIQTYTYEGVEAKRIFKKE
modifications: acrylodan label
In the case of B3, the “responsiveness of the probe” value [3] is reported as “the relative change upon FA binding is smaller than for ADIFAB”.
